From patent US9006252B2, “Fused multicyclic compounds as protein kinase inhibitors” (National Health Research Institutes, priority 2008, dated 2015)
“And” between values parts separate entries of the source, which are not always exact repeats. Equal entries are not always repeated.

How the values were obtained:
[1] = system: HCT-116 colon tumor xenograft; experiment: In vivo anticancer efficacy in colon tumor xenograft mice (injected with HCT-116); design: species or system nude mice; conditions: for tumor growth suppression (in words): versus VX-680 at 50 mg/kg
Method: In vivo anticancer efficacy of the compounds of this invention was assessed using colon tumor xenograft mice (injected with HCT-116), as described in Cancer Research 2004, 64, 4621-4628.
(§1) HCT-116 cells were injected via s.c. in nude mice to form colon tumor xenograft mice. Mice bearing tumors with a size of ˜100 mm^3 were randomly assigned to three groups: a vehicle control group (10 mice), a positive control group (10 mice), and a treatment group (21 mice). Of the treated mice, ten received Compound 3 at a daily dosage of 25 mg/kg via IV injection through the tail veins for 5 days/week for 2 consecutive weeks (days 1-5 and 8-12) and eleven received the same compound at a daily dosage of 50 mg/kg via IV injection through the tail veins for 5 consecutive days (days 1-5). The positive control mice received VX-680 (a known anti-cancer drug) at a daily dosage of 50 mg/kg, also via IV injection through the tail veins for 5 days/week for 2 consecutive weeks (days 1-5 and 8-12).
as §1, with “Compound 4” for “Compound 3”, “of 5 mg/kg and eleven received the same compound at a daily dosage of 15” for “of 25”, “and 8-12).” for “and 8-12) and eleven received the same compound at a daily dosage of 50 mg/kg via IV injection through the tail veins for 5 consecutive days (days 1-5).”, “VX-680” for “VX-680 (a known anti-cancer drug)”

Aurora A = biological target: T1, Aurora A (Homo sapiens, UniProt O14965); experiment: Aurora Kinase A luminescent kinase assay (Kinase-Glo); assay type: biochemical; conditions: IC50 values (concentration of a test compound at which activity of 50% of Aurora A is inhibited), GST-tAurora A (123-401aa) fusion protein
T1 construct: GST-tAurora A (123-401aa) fusion protein obtained above; made in house; host or cells: Sf9 insect cells (baculovirus, pBacPAK8)
T1 sequence (O14965 123-401): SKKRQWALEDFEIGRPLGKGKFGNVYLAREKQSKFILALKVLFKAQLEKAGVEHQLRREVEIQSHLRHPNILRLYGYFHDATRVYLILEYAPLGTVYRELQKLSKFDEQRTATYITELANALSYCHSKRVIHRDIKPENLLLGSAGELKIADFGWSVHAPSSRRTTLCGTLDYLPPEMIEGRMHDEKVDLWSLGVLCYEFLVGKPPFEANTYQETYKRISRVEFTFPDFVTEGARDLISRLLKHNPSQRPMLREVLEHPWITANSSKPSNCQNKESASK
Method: The Aurora A catalytic domain with an N-terminal GST tag was constructed in pBacPAK8 plasmid and expressed in sf9 cells. […] To concentrate GST-tAurora A, buffer was replaced with Tris buffer (100 mM Tris (pH 7.5), 300 mM NaCl, 1 mM EDTA, 4 mM DTT) using Amicon ultra-15 (MWCO:30K, Millipore) to 2.4 mg/ml. After the addition of equal volume of glycerol and 0.04% Triton X-100, the proteins were stored aliquoted at −80° C.
Briefly, a test compound, enzyme, substrate-tetra(LRRWSLG), DTT and ATP were dissolved in Aur buffer (50 mM Tris-HCl pH 7.4, 10 mM NaCl, 10 mM MgCl2, and 100 μg/ml BSA) individually before the assay. […] 5 μM ATP (5 μl), 1 mM DTT (5 μl) and 0.1 mM tetra(LRRWSLG) peptide substrate (5 μl) were added into the reactions of test compounds and GST-tAurora A. The reactions were incubated at 37° C. for 90 min. 50 μl of Kinase-Glo Plus Reagent (V3771, Promega) was added into the reactions, followed by the incubation at 25° C. for 20 min.

HCT-116 cells = experiment: HCT-116 cell viability, MTS assay; assay type: cell-based; conditions: Homo sapiens, HCT-116, 96 h, 96-h incubation, MTS; read-out: IC50 values, HCT-116 cell viability
Method: HCT-116 cell viability was examined by the MTS assay (Promega, Madison, Wis., USA). 2000 HCT-116 cells in 100 μL McCoy's 5a medium were seeded in each well of a 96-well plate. After 96-h incubation with a test compound, the cells were incubated with 20 μL of a MTS/PMS mixture (MTS/PMS ratio: 20:1) for 2 h at 37° C. in a humidified incubator with 5% CO2 to allow viable cells to convert the tetrazolium salt (MTS) into formazan. The amount/concentration of formazan, which indicates the number of live cells, was determined by measuring the absorbance at 490 nm using a PerkinElmer Victor2 plate reader (PerkinElmer, Shelton, Conn., USA).

IC50 (Aurora A) | IC50 (HCT-116 cells) [nM] | Compound | tumor size as % of that in the vehicle control animals ([1]; 50 mg/kg daily IV, days 1-5 and 8-12, 22nd day post treatment) [%] | tumor size as % of that in the vehicle control group ([1]; 25 mg/kg daily IV, days 1-5 and 8-12, 22nd day post treatment) [%] | tumor size as % of that in the vehicle control group ([1]; 50 mg/kg daily IV, days 1-5, 22nd day post treatment) [%] | tumor growth suppression (in words) ([1]; dosages of 25 and 50 mg/kg IV) | tumor size as % of that in the vehicle control group ([1]; 5 mg/kg daily IV, days 1-5 and 8-12, 22nd day post treatment) [%] | tumor size as % of that in the vehicle control group ([1]; 15 mg/kg daily IV, days 1-5 and 8-12, 22nd day post treatment) [%] | tumor growth suppression (in words) ([1]; dosage of 15 mg/kg IV)
– | – | Cc1cc(Nc2cc(N3CCN(C)CC3)nc(Sc3ccc(NC(=O)C4CC4)cc3)n2)n[nH]1 [VX-680, reference compound] | 50 | – | – | – | – | – | –
< 1000 nM and 51 to 450 nM | < 100 | COc1cc2ncnc(NCCc3ccc(NC(=O)Nc4ccccc4CN(C)C)cc3)c2cc1OC [Compound 3, 1-{4-[2-(6,7-Dimethoxy-quinazolin-4-ylamino)-ethyl]-phenyl}-3-(2-dimethylaminomethyl-phenyl)-urea] | – | 35 | 36 | suppressed tumor growth significantly and better than VX-680 | – | – | –
< 1000 nM and 1 to 50 nM | < 100 | CCN(CCO)CCCOc1ccc2c(NCCc3ccc(NC(=O)Nc4ccccc4)cc3)ncnc2c1 [Compound 20] | – | – | – | – | – | – | –

Compound | IC50 (Aurora A) | IC50 (HCT-116 cells) [nM] | tumor size as % of that in the vehicle control animals ([1]; 50 mg/kg daily IV, days 1-5 and 8-12, 22nd day post treatment) [%] | tumor size as % of that in the vehicle control group ([1]; 25 mg/kg daily IV, days 1-5 and 8-12, 22nd day post treatment) [%] | tumor size as % of that in the vehicle control group ([1]; 50 mg/kg daily IV, days 1-5, 22nd day post treatment) [%] | tumor growth suppression (in words) ([1]; dosages of 25 and 50 mg/kg IV) | tumor size as % of that in the vehicle control group ([1]; 5 mg/kg daily IV, days 1-5 and 8-12, 22nd day post treatment) [%] | tumor size as % of that in the vehicle control group ([1]; 15 mg/kg daily IV, days 1-5 and 8-12, 22nd day post treatment) [%] | tumor growth suppression (in words) ([1]; dosage of 15 mg/kg IV)
CN(C)CCCOc1ccc2c(NCCc3ccc(NC(=O)Nc4ccccc4)cc3)ncnc2c1 [Compound 4, 1-(4-{2-[7-(3-Dimethylamino-propoxy)-quinazolin-4-ylamino]-ethyl}-phenyl)-3-phenyl-urea] | < 1000 nM and 51 to 450 nM | < 100 | – | – | – | – | 67 | 37 | suppressed tumor growth significantly and better than VX-680
